Data from patent US10829473B2, “Modulators of the cystic fibrosis transmembrane conductance regulator protein and methods of use” (AbbVie Overseas S.Á.R.L., priority 2017, dated 2020).
Like-named read-outs stand apart in the source and are kept apart here. Marks after values point to notes of the source that are not given here.

Target: T1, F508delCFTR (Homo sapiens, UniProt P13569, DEL508-508)
T1 construct: expressed in transfected cells; host or cells: CFBE41o- human lung derived epithelial cells (CFBE41o-F508delCFTR-HRP), doxycycline-inducible
Experiment: Cell Surface Expression-Horse Radish Peroxidase (CSE-HRP) Assay;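 for EC50 (with co-corrector): co-corrector chromenyl benzoic acid corrector at 2 or 3 µM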;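 for Maximum % activity (without co-corrector): % of on-plate positive control chromenyl benzoic acid corrector at 2 or 3 µM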
Type: cell-based
Conditions: for Maximum % activity (with co-corrector) / Emax: maximum at any tested concentration; for Emax: read-out: Maximum % activity (without co-corrector)
Procedure, shortened: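 Corrector compounds were given as 8-point 3-fold series from 20 or 30 μM, with or without a 2 μM co-corrector, for 18-24 h at 33 °C. Surface HRP was read by luminol luminescence as % of positive control; variable-Hill-slope sigmoidal fitting gave EC50 from triplicate plates.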

[1] = test compound with co-corrector
[2] = test compound with co-corrector, read-out: EC50 (with co-corrector)
[3] = test compound without co-corrector
[4] = test compound without co-corrector, read-out: EC50 (without co-corrector)

T1 sequence (P13569 with tags, fused parts or gaps DEL508-508): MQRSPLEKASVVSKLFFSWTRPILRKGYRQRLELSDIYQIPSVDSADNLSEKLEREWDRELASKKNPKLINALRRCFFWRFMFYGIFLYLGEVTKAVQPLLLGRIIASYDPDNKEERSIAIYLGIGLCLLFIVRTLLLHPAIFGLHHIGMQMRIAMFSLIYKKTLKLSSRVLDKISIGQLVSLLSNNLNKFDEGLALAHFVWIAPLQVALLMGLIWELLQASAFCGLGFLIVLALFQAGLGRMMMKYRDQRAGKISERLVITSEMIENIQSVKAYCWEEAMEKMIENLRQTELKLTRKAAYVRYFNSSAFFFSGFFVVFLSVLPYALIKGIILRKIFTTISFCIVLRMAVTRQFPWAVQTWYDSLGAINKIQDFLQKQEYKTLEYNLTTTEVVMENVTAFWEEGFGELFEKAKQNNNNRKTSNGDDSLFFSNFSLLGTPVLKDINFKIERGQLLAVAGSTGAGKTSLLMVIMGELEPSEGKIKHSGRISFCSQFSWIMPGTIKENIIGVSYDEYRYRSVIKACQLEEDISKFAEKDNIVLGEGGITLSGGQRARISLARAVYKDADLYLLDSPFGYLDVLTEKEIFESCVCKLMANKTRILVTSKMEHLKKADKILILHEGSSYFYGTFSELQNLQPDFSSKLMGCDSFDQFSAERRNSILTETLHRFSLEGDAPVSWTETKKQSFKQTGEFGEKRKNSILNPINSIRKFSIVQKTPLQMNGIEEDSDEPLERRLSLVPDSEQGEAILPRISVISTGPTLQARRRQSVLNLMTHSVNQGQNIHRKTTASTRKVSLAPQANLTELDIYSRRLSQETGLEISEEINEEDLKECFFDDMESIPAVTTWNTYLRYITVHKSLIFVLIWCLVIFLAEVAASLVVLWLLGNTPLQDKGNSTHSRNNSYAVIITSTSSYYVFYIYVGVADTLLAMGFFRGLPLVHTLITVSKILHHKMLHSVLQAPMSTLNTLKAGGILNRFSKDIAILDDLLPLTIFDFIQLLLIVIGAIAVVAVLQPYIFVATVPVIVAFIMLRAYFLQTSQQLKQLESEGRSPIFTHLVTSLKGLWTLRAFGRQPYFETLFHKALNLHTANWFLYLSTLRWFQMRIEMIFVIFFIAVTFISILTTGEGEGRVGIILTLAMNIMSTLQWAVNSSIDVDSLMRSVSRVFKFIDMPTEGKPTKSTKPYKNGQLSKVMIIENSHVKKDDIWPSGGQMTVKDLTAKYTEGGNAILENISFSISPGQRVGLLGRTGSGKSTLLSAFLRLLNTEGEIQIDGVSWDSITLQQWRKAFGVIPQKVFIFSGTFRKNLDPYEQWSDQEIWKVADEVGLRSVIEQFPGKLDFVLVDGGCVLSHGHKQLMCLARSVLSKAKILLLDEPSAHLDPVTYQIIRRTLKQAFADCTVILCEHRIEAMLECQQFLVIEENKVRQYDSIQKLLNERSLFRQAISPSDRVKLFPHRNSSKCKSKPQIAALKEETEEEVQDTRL

| SMILES | Maximum % activity (with co-corrector) [1] | EC50 [2] [µM] | Emax [3] [%] | EC50 [4] [µM] | EC50 (with co-corrector) [1] | EC50 (without co-corrector) [3] |
| --- | --- | --- | --- | --- | --- | --- |
| CC(C)Oc1ncccc1C1(C(=O)NS(=O)(=O)c2cccc3c2CCCN3)CC1 [GII-4, 1-{2-[(propan-2-yl)oxy]pyridin-3-yl}-N-(1,2,3,4-tetrahydroquinoline-5-sulfonyl)cyclopropane-1-carboxamide] | ++ (≥150 and <350) | 3 to 10 | 50 to 150 | 3 to 10 |  |  |
| COc1cc(C2(C(=O)NS(=O)(=O)c3cccc4c3CCCN4)CC2)c(Cl)cn1 [GII-7, 1-(5-chloro-2-methoxypyridin-4-yl)-N-(1,2,3,4-tetrahydroquinoline-5-sulfonyl)cyclopropane-1-carboxamide] | +++ (≥350) | 3 to 10 | 50 to 150 | 3 to 10 |  |  |
| Cc1cnc(N2CCOCC2)cc1C1(C(=O)NS(=O)(=O)c2cccc3ncccc23)CC1 [GII-8, 1-[5-methyl-2-(morpholin-4-yl)pyridin-4-yl]-N-(quinoline-5-sulfonyl)cyclopropane-1-carboxamide] | ++ (≥150 and <350) |  | < 50 | > 10 | ++^a |  |
| Cc1cnc(N2CCCC2)cc1C1(C(=O)NS(=O)(=O)c2cccc3ncccc23)CC1 [GII-9, 1-[5-methyl-2-(pyrrolidin-1-yl)pyridin-4-yl]-N-(quinoline-5-sulfonyl)cyclopropane-1-carboxamide] | ++ (≥150 and <350) | 3 to 10 | 50 to 150 | 3 to 10 |  |  |
| COc1nc(C(F)(F)F)ccc1C1(C(=O)NS(=O)(=O)c2cccc3c2CCCN3)CC1 [GII-12, 1-[2-methoxy-6-(trifluoromethyl)pyridin-3-yl]-N-(1,2,3,4-tetrahydroquinoline-5-sulfonyl)cyclopropane-1-carboxamide] | +++ (≥350) | 3 to 10 | 50 to 150 | 3 to 10 |  |  |
| O=C(NS(=O)(=O)c1cccc2ncccc12)C1(c2ccc(C(F)(F)F)nc2C2CCC2)CC1 [GII-14, 1-[2-cyclobutyl-6-(trifluoromethyl)pyridin-3-yl]-N-(quinoline-5-sulfonyl)cyclopropane-1-carboxamide] | +++ (≥350) | 3 to 10 | > 150 | 3 to 10 |  |  |
| CCc1ncc(OC(C)C)cc1C1(C(=O)NS(=O)(=O)c2cccc3ncccc23)CC1 [GII-16, 1-{2-ethyl-5-[(propan-2-yl)oxy]pyridin-3-yl}-N-(quinoline-5-sulfonyl)cyclopropane-1-carboxamide] | ++ (≥150 and <350) | 3 to 10 | 50 to 150 |  |  | ++^a |
| CCc1ccncc1C1(C(=O)NS(=O)(=O)c2cccc3c2CCCN3)CC1 [GII-21, 1-(4-ethylpyridin-3-yl)-N-(1,2,3,4-tetrahydroquinoline-5-sulfonyl)cyclopropane-1-carboxamide] | ++ (≥150 and <350) | 3 to 10 | < 50 | > 10 |  |  |
| COc1cc(OC(C)C)c(C2(C(=O)NS(=O)(=O)c3cccc4c3CCCN4)CC2)cn1 [GII-24, 1-{6-methoxy-4-[(propan-2-yl)oxy]pyridin-3-yl}-N-(1,2,3,4-tetrahydroquinoline-5-sulfonyl)cyclopropane-1-carboxamide] | ++ (≥150 and <350) | 3 to 10 | 50 to 150 |  |  | ++^a |
| CC(C)Oc1ncc(C2CCC2)cc1C1(C(=O)NS(=O)(=O)c2cccc3c2CCCN3)CC1 [GII-25, 1-{5-cyclobutyl-2-[(propan-2-yl)oxy]pyridin-3-yl}-N-(1,2,3,4-tetrahydroquinoline-5-sulfonyl)cyclopropane-1-carboxamide] | +++ (≥350) | 3 to 10 | > 150 | 3 to 10 |  |  |
| CC(C)Oc1cnc(C2CCC2)cc1C1(C(=O)NS(=O)(=O)c2cccc3c2CCCN3)CC1 [GII-26, 1-{2-cyclobutyl-5-[(propan-2-yl)oxy]pyridin-4-yl}-N-(1,2,3,4-tetrahydroquinoline-5-sulfonyl)cyclopropane-1-carboxamide] | +++ (≥350) | 3 to 10 | > 150 | 3 to 10 |  |  |
| CC(C)Oc1cc(C2CCC2)cnc1C1(C(=O)NS(=O)(=O)c2cccc3ncccc23)CC1 [GII-27, 1-{5-cyclobutyl-3-[(propan-2-yl)oxy]pyridin-2-yl}-N-(quinoline-5-sulfonyl)cyclopropane-1-carboxamide] | ++ (≥150 and <350) | 3 to 10 | 50 to 150 | 3 to 10 |  |  |

Second part, the compound after the results:

| Maximum % activity (with co-corrector) [1] | EC50 [2] [µM] | Emax [3] [%] | EC50 [4] [µM] | EC50 (with co-corrector) [1] | EC50 (without co-corrector) [3] | SMILES |
| --- | --- | --- | --- | --- | --- | --- |
| ++ (≥150 and <350) | 3 to 10 | 50 to 150 | 3 to 10 |  |  | CC(C)Oc1ncccc1C1(C(=O)NS(=O)(=O)c2cccc3ccccc23)CC1 [GII-2, N-(naphthalene-1-sulfonyl)-1-{2-[(propan-2-yl)oxy]pyridin-3-yl}cyclopropane-1-carboxamide] |
| ++ (≥150 and <350) | 3 to 10 | 50 to 150 | 3 to 10 |  |  | CC(C)Oc1ncccc1C1(C(=O)NS(=O)(=O)c2cccc3ncccc23)CC1 [GII-3, 1-{2-[(propan-2-yl)oxy]pyridin-3-yl}-N-(quinoline-5-sulfonyl)cyclopropane-1-carboxamide] |
| ++ (≥150 and <350) | 3 to 10 | 50 to 150 | 3 to 10 |  |  | O=C(NS(=O)(=O)c1cccc2ccccc12)C1(c2cc(Cl)cnc2C(F)(F)F)CC1 [GII-5, 1-[5-chloro-2-(trifluoromethyl)pyridin-3-yl]-N-(naphthalene-1-sulfonyl)cyclopropane-1-carboxamide] |
| ++ (≥150 and <350) | 3 to 10 | 50 to 150 | 3 to 10 |  |  | COc1cc(C2(C(=O)NS(=O)(=O)c3cccc4ncccc34)CC2)c(Cl)cn1 [GII-6, 1-(5-chloro-2-methoxypyridin-4-yl)-N-(quinoline-5-sulfonyl)cyclopropane-1-carboxamide] |
| +++ (≥350) | 3 to 10 | > 150 | 3 to 10 |  |  | COc1nc(C(F)(F)F)ccc1C1(C(=O)NS(=O)(=O)c2cccc3ncccc23)CC1 [GII-10, 1-[2-methoxy-6-(trifluoromethyl)pyridin-3-yl]-N-(quinoline-5-sulfonyl)cyclopropane-1-carboxamide] |
| +++ (≥350) | 3 to 10 | 50 to 150 |  |  | ++^a | Cc1cnc(N(C)C)cc1C1(C(=O)NS(=O)(=O)c2cccc3ncccc23)CC1 [GII-11, 1-[2-(dimethylamino)-5-methylpyridin-4-yl]-N-(quinoline-5-sulfonyl)cyclopropane-1-carboxamide] |
| +++ (≥350) | 3 to 10 | 50 to 150 | 3 to 10 |  |  | COc1cc(C2(C(=O)NS(=O)(=O)c3cccc4ncccc34)CC2)c(C)cn1 [GII-13, 1-(2-methoxy-5-methylpyridin-4-yl)-N-(quinoline-5-sulfonyl)cyclopropane-1-carboxamide] |
| +++ (≥350) | 3 to 10 | > 150 | 3 to 10 |  |  | COc1cnc(C2CC2)c(C2(C(=O)NS(=O)(=O)c3cccc4ncccc34)CC2)c1 [GII-15, 1-(2-cyclopropyl-5-methoxypyridin-3-yl)-N-(quinoline-5-sulfonyl)cyclopropane-1-carboxamide] |
| ++ (≥150 and <350) | 3 to 10 | < 50 | 3 to 10 |  |  | CCc1ncc(OC)cc1C1(C(=O)NS(=O)(=O)c2cccc3ncccc23)CC1 [GII-17, 1-(2-ethyl-5-methoxypyridin-3-yl)-N-(quinoline-5-sulfonyl)cyclopropane-1-carboxamide] |
| +++ (≥350) | 3 to 10 | > 150 | 3 to 10 |  |  | COc1nc(N(C)C)ccc1C1(C(=O)NS(=O)(=O)c2cccc3ncccc23)CC1 [GII-18, 1-[6-(dimethylamino)-2-methoxypyridin-3-yl]-N-(quinoline-5-sulfonyl)cyclopropane-1-carboxamide] |
| +++ (≥350) | 3 to 10 | 50 to 150 |  |  | ++^a | COc1ccc(C2(C(=O)NS(=O)(=O)c3cccc4ccccc34)CC2)c(C)n1 [GII-19, 1-(6-methoxy-2-methylpyridin-3-yl)-N-(naphthalene-1-sulfonyl)cyclopropane-1-carboxamide] |
| ++ (≥150 and <350) |  | 50 to 150 |  | ++^a | ++^a | CCc1ccncc1C1(C(=O)NS(=O)(=O)c2cccc3ccccc23)CC1 [GII-20, 1-(4-ethylpyridin-3-yl)-N-(naphthalene-1-sulfonyl)cyclopropane-1-carboxamide] |
| +++ (≥350) | 3 to 10 | > 150 | 3 to 10 |  |  | COc1cc(C)c(C2(C(=O)NS(=O)(=O)c3cccc4ccccc34)CC2)cn1 [GII-22, 1-(6-methoxy-4-methylpyridin-3-yl)-N-(naphthalene-1-sulfonyl)cyclopropane-1-carboxamide] |
| ++ (≥150 and <350) |  | 50 to 150 |  | ++^a | ++^a | COc1cc(C)c(C2(C(=O)NS(=O)(=O)c3cccc4ncccc34)CC2)cn1 [GII-23, 1-(6-methoxy-4-methylpyridin-3-yl)-N-(quinoline-5-sulfonyl)cyclopropane-1-carboxamide] |
